Measurements reported in paper PMC11999280, “Design and screening of novel endosomal escape compounds that enhance functional delivery of oligonucleotides in vitro” (Molecular Therapy. Nucleic Acids, 2025).

Assays:
Format in all cases: cell-based
[1] = system: mCherry-GAL9 expressing NCI-H358 cells; assay: GAL9 recruitment assay, NCI-H358; settings: calculated mean from >3 independent exp.
Experimental: (§1) Experiments assessing GAL9 localization as an indicator for endosomal remodeling were performed as previously described[15] using 8× stablemCherry-GAL9 expressing cell lines, SHSY5Y, U2OS, 16HBE, NCI-H358, HuH7, HepG2, HEK293, and HeLa. For mCherry-GAL9 recruitment, 3,000 or 6,500 cells/well (depending upon cell line) were seeded into 384-well CellCarrier Ultra plates 24 h prior to treatment (PerkinElmer, catalog no. 6007558). An Echo 655T acoustic dispenser (Labcyte) was used for EEE dose-response preparation by transferring to the cell plate. At assay endpoints, cells were PBS washed, 4% paraformaldehyde fixed at room temperature […] (VWR, catalog no. 9713.1000), and nuclei stained with PBS +1 μg/mL Hoechst 33342 (Thermo Fisher Scientific, catalog no. H21492).
(§2) Imaging was performed using a spinning-disk confocal microscope (Yokogawa: CV8000) with a ×20w objective (numerical aperture 1.0). Cells and mCherry-GAL9 structure identification and quantification were done using Columbus image-analysis software (PerkinElmer version 2.9.0). Data processing was done using Spotfire (Tibco version 11.4) and Prism (GraphPad version 9.1.0). Image panels were assembled using the FigureJ plugin for FIJI.[43] All mCherry-GAL9 experiments were performed three times (N = 3) with duplicated wells per treatment (n = 2).

[2] = system: HeLa_Luc705 cells (pLuc/705 splice-switching reporter); assay: Functional 705-SSO delivery, luciferase splice-switching assay; settings: HeLa-Luc705 + 2 µM SSO, mean from >3 independent experiments
Source text: Therefore, next, we functionally screened the SSO delivery in the HeLa_Luc705 reporter cell line. HeLa_Luc705 carries a pLuc/705 splice-switching reporter luciferase gene interrupted by a mutated β-globin intron, which creates a preferentially used cryptic 5′ splice site leading to aberrant splicing. Functional SSO delivery masks the cryptic site, redirecting the splicing machinery to the right splicing site, allowing the measurement of luciferase expression (Figure S1).[25]^,[26]^,[27]^,[28] We used SSO transfection with LF2000 as transfection control and the previously published endosomal escape enhancer CMP05 (here, EEE2) as positive control.[15]
For the assessment of functional SSO therapeutics, a HeLa_Luc705 cell line was grown in DMEM media supplemented with 10% fetal bovine serum (FBS). For most treatments, 10,000 cells/well were seeded in a 96-well plate, 24 h pre-incubated with 1- to 2-μM oligonucleotide, and then treated at the described EEE concentration. At 24 h post-treatment, cells were PBS rinsed and collected for further analysis (treatments and incubation times changed accordingly to the experiment design). Luciferase readout was performed as previously described,[15] using a GloMax 96-well plate microplate luminometer (Promega) immediately after adding 30 μL auto-injected luciferin substrate (Promega Firefly Luciferase Assay System; Thermo Scientific, catalog no. 16174) in a white-walled 96-well plate containing 30 μL 0.1% Triton X-100 (Sigma-Aldrich) cell lysed. Photon exposure time and delay were set to 10 and 2 s after injection. LF2000 was used as the transfection reagent control (Thermo Scientific, catalog no. 11668019). For EEE experiments using 1 or 2 μM SSOs, the control was prepared using lipofection with 100–200 nM SSO; this is to avoid complex induced cell toxicity.
705-SSO was purchased from and synthesized by Integrated DNA Technologies. The 705-SSO sequence was previously published, containing 2′-O-methylated bases and only phosphorothioate-saturated backbone linkages were included.[15] The 705-SSO was high-performance liquid chromatography purified, shipped, and stored in IDTE buffer (10 mM Tris, 0.1 mM EDTA).

[3] = system: mCherry-GAL9 expressing HeLa cells; assay: GAL9 recruitment assay, HeLa; settings: calculated mean from >3 independent exp.
Experimental: as §1, §2

[4] = system: mCherry-GAL9 expressing SHSY5Y cells; assay: GAL9 recruitment assay, SHSY5Y; settings: calculated mean from >3 independent exp.
Experimental: as §1, §2

[5] = system: mCherry-GAL9 expressing 16HBE cells; assay: GAL9 recruitment assay, 16HBE; settings: calculated mean from >3 independent exp.
Experimental: as §1, §2

[6] = system: mCherry-GAL9 expressing HepG2 cells; assay: GAL9 recruitment assay, HepG2; settings: calculated mean from >3 independent exp.
Experimental: as §1, §2

[7] = system: mCherry-GAL9 expressing U2OS cells; assay: GAL9 recruitment assay, U2OS; settings: calculated mean from >3 independent exp.
Experimental: as §1, §2

[8] = system: mCherry-GAL9 expressing HEK293 cells; assay: GAL9 recruitment assay, HEK293; settings: calculated mean from >3 independent exp.
Experimental: as §1, §2

[9] = system: mCherry-GAL9 expressing HuH7 cells; assay: GAL9 recruitment assay, HuH7; settings: calculated mean from >3 independent exp.
Experimental: as §1, §2

CCCN1CCC(n2cc(Nc3ncc(F)c(-n4ccc5c(C#N)cccc54)n3)c(OC)n2)CC1 [EEE10]
Gal9 response compared to reference ([1]; EEE 0.31 µM): 0.017
Gal9 response compared to reference ([1]; EEE 0.62 µM): 0.016
Gal9 response compared to reference ([1]; EEE 1.25 µM): 0.031
Gal9 response compared to reference ([1]; EEE 2.5 µM): 0.194
Gal9 response compared to reference ([1]; EEE 5 µM): 0.633
Gal9 response compared to reference ([1]; EEE 10 µM): 0.662
Luciferase expression compared to reference ([2]; EEE 2.5 - 3 µM): 0.565
Gal9 response compared to reference ([3]; EEE 0.31 µM): 0.005
Gal9 response compared to reference ([3]; EEE 0.62 µM): 0.005
Gal9 response compared to reference ([3]; EEE 1.25 µM): 0.005
Gal9 response compared to reference ([3]; EEE 2.5 µM): 0.145
Gal9 response compared to reference ([3]; EEE 5 µM): 0.463
Gal9 response compared to reference ([3]; EEE 10 µM): 0.588
Gal9 response compared to reference ([4]; EEE 0.31 µM): 0.015
Gal9 response compared to reference ([4]; EEE 0.62 µM): 0.024
Gal9 response compared to reference ([4]; EEE 1.25 µM): 0.123
Gal9 response compared to reference ([4]; EEE 2.5 µM): 0.877
Gal9 response compared to reference ([4]; EEE 5 µM): 0.887
Gal9 response compared to reference ([4]; EEE 10 µM): 0.717
Gal9 response compared to reference ([5]; EEE 0.31 µM): 0.010
Gal9 response compared to reference ([5]; EEE 0.62 µM): 0.011
Gal9 response compared to reference ([5]; EEE 1.25 µM): 0.028
Gal9 response compared to reference ([5]; EEE 2.5 µM): 0.183
Gal9 response compared to reference ([5]; EEE 5 µM): 0.522
Gal9 response compared to reference ([5]; EEE 10 µM): 0.746
Gal9 response compared to reference ([6]; EEE 0.31 µM): 0.008
Gal9 response compared to reference ([6]; EEE 0.62 µM): 0.007
Gal9 response compared to reference ([6]; EEE 1.25 µM): 0.007
Gal9 response compared to reference ([6]; EEE 2.5 µM): 0.008
Gal9 response compared to reference ([6]; EEE 5 µM): 0.026
Gal9 response compared to reference ([6]; EEE 10 µM): 0.371
Gal9 response compared to reference ([7]; EEE 0.31 µM): 0.011
Gal9 response compared to reference ([7]; EEE 0.62 µM): 0.012
Gal9 response compared to reference ([7]; EEE 1.25 µM): 0.016
Gal9 response compared to reference ([7]; EEE 2.5 µM): 0.076
Gal9 response compared to reference ([7]; EEE 5 µM): 0.260
Gal9 response compared to reference ([7]; EEE 10 µM): 0.512
Gal9 response compared to reference ([8]; EEE 0.31 µM): 0.023
Gal9 response compared to reference ([8]; EEE 0.62 µM): 0.026
Gal9 response compared to reference ([8]; EEE 1.25 µM): 0.051
Gal9 response compared to reference ([8]; EEE 2.5 µM): 0.379
Gal9 response compared to reference ([8]; EEE 5 µM): 0.672
Gal9 response compared to reference ([8]; EEE 10 µM): 0.647
Gal9 response compared to reference ([9]; EEE 0.31 µM): 0.011
Gal9 response compared to reference ([9]; EEE 0.62 µM): 0.009
Gal9 response compared to reference ([9]; EEE 1.25 µM): 0.016
Gal9 response compared to reference ([9]; EEE 2.5 µM): 0.121
Gal9 response compared to reference ([9]; EEE 5 µM): 0.252
Gal9 response compared to reference ([9]; EEE 10 µM): 0.414

COc1nn(C2CCNCC2)cc1Nc1ncc(F)c(-c2c[nH]c3ccccc23)n1 [EEE23]
Gal9 response compared to reference ([1]; EEE 0.31 µM): 0.013
Gal9 response compared to reference ([1]; EEE 0.62 µM): 0.015
Gal9 response compared to reference ([1]; EEE 1.25 µM): 0.012
Gal9 response compared to reference ([1]; EEE 2.5 µM): 0.017
Gal9 response compared to reference ([1]; EEE 5 µM): 0.017
Gal9 response compared to reference ([1]; EEE 10 µM): 0.021
Luciferase expression compared to reference ([2]; EEE 5 µM): 65.259
Luciferase expression compared to reference ([2]; EEE 1-1.25 µM): 0.775
Luciferase expression compared to reference ([2]; EEE 2.5 - 3 µM): 1.207
Gal9 response compared to reference ([3]; EEE 0.31 µM): 0.004
Gal9 response compared to reference ([3]; EEE 0.62 µM): 0.005
Gal9 response compared to reference ([3]; EEE 1.25 µM): 0.004
Gal9 response compared to reference ([3]; EEE 2.5 µM): 0.005
Gal9 response compared to reference ([3]; EEE 5 µM): 0.005
Gal9 response compared to reference ([3]; EEE 10 µM): 0.008
Gal9 response compared to reference ([4]; EEE 0.31 µM): 0.013
Gal9 response compared to reference ([4]; EEE 0.62 µM): 0.015
Gal9 response compared to reference ([4]; EEE 1.25 µM): 0.013
Gal9 response compared to reference ([4]; EEE 2.5 µM): 0.013
Gal9 response compared to reference ([4]; EEE 5 µM): 0.017
Gal9 response compared to reference ([4]; EEE 10 µM): 0.087
Gal9 response compared to reference ([5]; EEE 0.31 µM): 0.008
Gal9 response compared to reference ([5]; EEE 0.62 µM): 0.010
Gal9 response compared to reference ([5]; EEE 1.25 µM): 0.010
Gal9 response compared to reference ([5]; EEE 2.5 µM): 0.012
Gal9 response compared to reference ([5]; EEE 5 µM): 0.017
Gal9 response compared to reference ([5]; EEE 10 µM): 0.032
Gal9 response compared to reference ([6]; EEE 0.31 µM): 0.006
Gal9 response compared to reference ([6]; EEE 0.62 µM): 0.006
Gal9 response compared to reference ([6]; EEE 1.25 µM): 0.007
Gal9 response compared to reference ([6]; EEE 2.5 µM): 0.005
Gal9 response compared to reference ([6]; EEE 5 µM): 0.004
Gal9 response compared to reference ([6]; EEE 10 µM): 0.005
Gal9 response compared to reference ([7]; EEE 0.31 µM): 0.011
Gal9 response compared to reference ([7]; EEE 0.62 µM): 0.012
Gal9 response compared to reference ([7]; EEE 1.25 µM): 0.015
Gal9 response compared to reference ([7]; EEE 2.5 µM): 0.015
Gal9 response compared to reference ([7]; EEE 5 µM): 0.012
Gal9 response compared to reference ([7]; EEE 10 µM): 0.017
Gal9 response compared to reference ([8]; EEE 0.31 µM): 0.019
Gal9 response compared to reference ([8]; EEE 0.62 µM): 0.015
Gal9 response compared to reference ([8]; EEE 1.25 µM): 0.015
Gal9 response compared to reference ([8]; EEE 2.5 µM): 0.016
Gal9 response compared to reference ([8]; EEE 5 µM): 0.025
Gal9 response compared to reference ([8]; EEE 10 µM): 0.042
Gal9 response compared to reference ([9]; EEE 0.31 µM): 0.007
Gal9 response compared to reference ([9]; EEE 0.62 µM): 0.008
Gal9 response compared to reference ([9]; EEE 1.25 µM): 0.009
Gal9 response compared to reference ([9]; EEE 2.5 µM): 0.009
Gal9 response compared to reference ([9]; EEE 5 µM): 0.010
Gal9 response compared to reference ([9]; EEE 10 µM): 0.011
